We go through five compounds from PMC12114633, “α-Glucosidase Inhibition Mechanism and Anti-Hyperglycemic Effects of Flavonoids from Astragali Radix and Their Mixture Effects” (Pharmaceuticals, 2025).

Read-outs that look alike come from different tables or passages of the source.

Experiment [1] concerns the target T1, α-glucosidase (Saccharomyces cerevisiae, UniProt P53341).
T1 construct: purchased Shanghai Yuanye Biotechnology Co., Shanghai, China Lot No. M23HS178879 (catalogue number not given)
Put plainly: Inhibitory kinetic analysis (Lineweaver–Burk plot). In kind it is biochemical. The conditions noted are these: Lineweaver–Burk plots, pNPG 0.31–20 mM.

For experiment [2], the target named is T1, α-glucosidase. Put plainly: CD spectroscopy, secondary structure of α-glucosidase (BeStSel). As to conditions: for β-turn: free enzyme 11.7; for β-sheet: free enzyme 28.8; for random coil: free enzyme 45.2; for α-helix: free enzyme 14.4. As for the experimental part: CD spectra in the far-UV region (190–250 nm) were scanned by using a CD spectrometer (JASCO-1.5 Tokyo, Japan). […] The slit width was set to 1 nm, and the baseline was calibrated with PBS (phosphate buffered saline). CD spectra were averaged over three scans under a constant nitrogen flow, with the buffer signal subtracted. The results were analyzed using the BeStSel database (https://bestsel.elte.hu/index.php, accessed on 16 May 2025).

Experiment [3] deals with α-glucosidase. As to conditions: literature values, reference given; read-out: IC50 in References; cited from earlier work.
The target of experiment [4] is T2, Saccharomyces cerevisiae α-glucosidase (Saccharomyces cerevisiae, UniProt P53341).
T2 construct: purchased Shanghai Yuanye Biotechnology Co., Shanghai, China Lot No. M23HS178879 (catalogue number not given)
Put plainly: biochemical. As to conditions: 5 mM pNPG, PBS pH 6.8, 37 °C. On the procedure: The α-glucosidase inhibitory effects of flavonoids were evaluated as in a previous report with slight modifications (including changes in the concentrations of the enzyme, substrate, and Na2CO3). Briefly, 50 μL of phosphate-buffered saline (PBS, 0.1 M, pH 6.8), the test compound, and α-glucosidase (0.2 U/mL) were preincubated in a 96-well plate at 37 °C for 10 min. The reaction was then initiated by adding 50 μL of 5 mM pNPG as the substrate. Subsequently, the 96-well plate was incubated for an additional 30 min at 37 °C, then 50 μL of 0.2 M Na2CO3 was added to terminate the reaction. Absorbance was measured at under 405 nm.

Experiment [5] has as its target T1, α-glucosidase. Put plainly: biochemical. The experiment is classed as binding. On the procedure: SPR analysis was performed using the Biacore 8K system (GE Healthcare, Uppsala, Sweden). α-Glucosidase (0.05 mg/mL) was fixed on the CM5 sensor chip by an amine coupling kit. Subsequently, various concentrations of the 16 flavonoids dissolved in 5% DMSO were continuously injected onto the surface of α-glucosidase coated surface. After each sample injection, the sensor chip surface was washed and regenerated with running buffer (PBS) at a flow rate of 30 µL/min. According to the 1:1 Langmuir model, the equilibrium dissociation constant (KD) was calculated by the Biacore evaluation software. For sensorgrams without significant kinetic features, the KD values were calculated using the steady-state analysis.

A further experiment deals with normal C57BL/6J mice. Put plainly: Oral sucrose test, postprandial blood glucose. The experiment is classed as in vivo. As to conditions: for Blood glucose levels: 30 min after sucrose 4 g/kg, n = 8, in mmol/L (unit assumed); for Rate of blood glucose reduction: vs model group, 30 min after sucrose.
Experiment [6] deals with T1, α-glucosidase. Put plainly: Mixture effects of flavonoid combinations on α-glucosidase. The experiment is classed as biochemical. The conditions noted are these: calculated from the dose–response curve.
In another experiment the test system is blood glucose. As to conditions: 50 mg/kg, cited from earlier work.
The mark [7] stands for this setting: molar ratio 10:1, α-glucosidase 4 μM.
The mark [8] stands for this setting: molar ratio 40:1, α-glucosidase 4 μM.
The mark [9] stands for this setting: molar ratio compound:α-glucosidase 10:1, α-glucosidase 4 μM.

T2 sequence (P53341 whole entry): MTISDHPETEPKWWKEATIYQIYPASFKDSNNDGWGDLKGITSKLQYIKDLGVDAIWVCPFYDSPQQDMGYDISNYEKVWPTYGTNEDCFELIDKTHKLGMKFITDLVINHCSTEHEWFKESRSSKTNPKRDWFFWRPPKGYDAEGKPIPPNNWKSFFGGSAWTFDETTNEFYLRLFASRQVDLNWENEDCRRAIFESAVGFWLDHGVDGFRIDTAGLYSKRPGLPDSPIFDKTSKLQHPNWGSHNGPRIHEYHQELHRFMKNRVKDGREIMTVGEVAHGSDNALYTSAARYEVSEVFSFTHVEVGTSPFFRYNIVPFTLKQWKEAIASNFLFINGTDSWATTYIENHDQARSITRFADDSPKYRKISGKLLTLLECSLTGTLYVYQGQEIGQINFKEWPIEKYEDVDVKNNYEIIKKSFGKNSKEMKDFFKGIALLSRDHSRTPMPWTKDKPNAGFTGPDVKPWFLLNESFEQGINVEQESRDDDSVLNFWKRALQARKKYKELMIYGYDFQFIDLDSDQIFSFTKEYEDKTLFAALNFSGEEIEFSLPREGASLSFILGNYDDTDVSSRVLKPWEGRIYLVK
T1 sequence (P53341 whole entry): as above

For orientation: IC50 means the midpoint of a concentration-inhibition curve. The term Kd denotes the free concentration of one partner at which half of the binding sites on the other are occupied at equilibrium, for simple one-to-one binding. Take `O=c1c(-c2ccc(O)cc2)coc2cc(O)ccc12` [C11, daidzein]: the “type of inhibition on α-glucosidase” value at α-glucosidase [1] is on record as “non-competitive inhibitors”. Moreover, on α-glucosidase [2] (setting [7]), the β-turn came to 12.7%, the β-sheet turned out to be 28.8% and the random coil is 40.8%. Also, on α-glucosidase [2] (setting [8]), the β-turn is on record as 14.3%, the α-helix came to 14.6%, the β-sheet was 25.5% and the random coil was 45.5%. Besides, the α-helix at α-glucosidase [2] (setting [9]) stood at 17.7%. On α-glucosidase [3], the IC50 was 150 µM. The compound also displayed a concentration for half-maximal inhibition (IC50) in experiment [4] (IC50, α-glucosidase 0.2 U/mL) of 83.7 ± 20.2 µM. For the same compound, binding on α-glucosidase [5] was characterised by a dissociation constant (Kd) of 20 µM.

For the compound `COc1cc(-c2oc3cc(O)cc(O)c3c(=O)c2OC2OC(CO)C(O)C(O)C2O)ccc1O` (stereo not drawn) [C14, isorhamnetin-3-O-glucoside], at α-glucosidase [1], the “type of inhibition on α-glucosidase” value is reported as “mixed-type inhibitors”. Further, the β-turn at α-glucosidase [2] (setting [7]) turned out to be 12.8%; at α-glucosidase [2] (setting [8]), 15.7%. For the same compound, the β-sheet at α-glucosidase [2] (setting [7]) is on record as 33.7%; on α-glucosidase [2] (setting [8]), 19.8%. The random coil worked out at 40.4% at α-glucosidase [2] (setting [7]) and 56.6% at α-glucosidase [2] (setting [8]). Besides, the α-helix came out at 7.80% at α-glucosidase [2] (setting [8]) and 13.1% on α-glucosidase [2] (setting [9]). The IC50 at α-glucosidase [3] is 275 µM; in experiment [4] (α-glucosidase 0.2 U/mL, read-out: IC50), 228 ± 34 µM. Further, the dissociation constant (Kd) at α-glucosidase [5] (kinetic model (1:1 Langmuir), read-out: KD) worked out at 383 µM. The Blood glucose levels is 14.84 ± 0.62 with normal C57BL/6J mice (10 mg/kg oral), 12.66 ± 0.48 in the experiment on normal C57BL/6J mice (50 mg/kg oral) and 12.19 ± 0.81 in the experiment with normal C57BL/6J mice (100 mg/kg oral). The “Rate of blood glucose reduction” value in the experiment on normal C57BL/6J mice (10 mg/kg oral) is -2.50%; in the experiment on normal C57BL/6J mice (50 mg/kg oral), 12.52%; in the experiment on normal C57BL/6J mice (100 mg/kg oral), 15.80%.

With `COc1ccc(-c2coc3cc(O[C@@H]4O[C@H](CO)[C@@H](O)[C@H](O)[C@H]4O)ccc3c2=O)cc1O` [C16, calycosin-7-O-glucoside], the “type of inhibition on α-glucosidase” value at α-glucosidase [1] is “mixed-type inhibitors”. In addition, the β-turn stood at 11.7% on α-glucosidase [2] (setting [7]) and 11.5% on α-glucosidase [2] (setting [8]). Moreover, the β-sheet at α-glucosidase [2] (setting [7]) was found to be 29.5%; on α-glucosidase [2] (setting [8]), 27.7%. Also, the random coil is on record as 45.6% at α-glucosidase [2] (setting [7]) and 48.6% on α-glucosidase [2] (setting [8]). The values for the α-helix at α-glucosidase [2] (setting [8]) and on α-glucosidase [2] (setting [9]) were 12.1% and 13.3%, respectively. Also, the IC50 at α-glucosidase [3] was 174 µM; in experiment [4] (IC50, α-glucosidase 0.2 U/mL) it was 563 ± 43.6 µM. In addition, the Kd on α-glucosidase [5] was 364 µM. In addition, the Blood glucose levels in the experiment with normal C57BL/6J mice (10 mg/kg oral) is listed as 15.01 ± 1.15; in the experiment with normal C57BL/6J mice (25 mg/kg oral), 13.71 ± 0.77; with normal C57BL/6J mice (50 mg/kg oral) it was 12.78 ± 0.74. For the same compound, the entries for the “Rate of blood glucose reduction” value in the experiment with normal C57BL/6J mice (10 mg/kg oral), with normal C57BL/6J mice (25 mg/kg oral) and with normal C57BL/6J mice (50 mg/kg oral) were 2.75%, 11.17% and 17.25%, respectively. In addition, the IC05 at α-glucosidase [6] is 150.00 µM.

`C[C@@H]1O[C@@H](OC[C@H]2O[C@@H](Oc3cc4c(O)cc(O)cc4[o+]c3-c3ccc(O)cc3)[C@H](O)[C@@H](O)[C@@H]2O)[C@H](O)[C@H](O)[C@H]1O` [pelargonidin-3-O-rutinoside]: the “reduction of blood glucose” value with blood glucose (ref 52 (Xu et al.)) is 18.5%.

Consider `O=c1c(O)c(-c2ccc(O)c(O)c2)oc2cc(O[C@@H]3O[C@H](CO)[C@@H](O)[C@H](O)[C@H]3O)c(O)c(O)c12` [quercetagetin-7-O-glucoside], for which, in the experiment with blood glucose (ref 51 (Tian et al.)), the “reduction of blood glucose” value was 16.7%.
